From PMC10451034, “Highly Efficient Photosensitizers with Molecular Vibrational Torsion for Cancer Photodynamic Therapy” (ACS Central Science, 2023) come the findings set out here.

Data set [1] has as its system HepG2 cells. Briefly: Lactate dehydrogenase (LDH) release into cell culture medium. In kind it is cell-based, human. The conditions noted are these: under irradiation. The procedure: Next, in order to verify the disruption effect on cell structural integrity of the ^1O2 generation by QTCy7-R under irradiation, JC-1 staining imaging was conducted to monitor the mitochondria membrane potential. […] On the other hand, cell membrane damage caused by the photooxidation of QTCy7-Ac and QTCy7-CHO could be confirmed by a visualized observation. […] Furthermore, the lactate dehydrogenase (LDH) content in cell culture medium was measured to characterize the extent of cell membrane damage.[49]
QTCy7-Ph, (e) QTCy7-Ac, (f) QTCy7-CHO, (g) TCy7 and (h) MB under 660 nm irradiation (4 mW/cm2) in PBS. (i) The relative singlet oxygen yield of different compounds in PBS.
Figure S19. (a) The cellular uptake of QTCy7-R in HepG2 cells (QTCy7-Me/QTCy7-Ph: λex = 640 […]
μm). (b) The fluorescence intensity of QTCy7-R in cell at different time. (c) The LDH release rate of cells under different treatment conditions.
Figure S20. The enlarged images of (a) QTCy7-Ac and (b) QTCy7-CHO caused cell membrane destruction at 0 min and 4 min. Yellow arrows indicate the formation of distinct bubble-like structures on cell membrane. (λex = 640 nm, λem = 650-750 nm, scale bars: 20 μm). […]

The subject of data set [2] is murine mammary carcinoma cells (4T1). The data set can be described thus: MTT cytotoxicity assay, 4T1. The format is cell-based. The conditions noted are these: Mus musculus, light or radiation study; 4T1, 660 nm irradiation 12 J/cm^2. The procedure: (§1) DMEM medium was replaced with saline to prevent false positive interference. Then the cells were exposed to different following treatments: 1) cells incubated with PBS; 2) cells incubated with PBS under 660 nm irradiation (20 mW/cm2, 10 min); 3) cells incubated with QTCy7-R; 4) cells incubated with QTCy7-R under 660 nm irradiation (20 mW/cm2, 10 min). After being different treated, the cells were stained with Calcein-AM and Propidium Iodide (PI) according to the manufacture instruction. Then the confocal fluorescence imaging was carried out and recorded with a 10 × objective lens.
(§2) Cytotoxicity was tested by the reduction of methyl thiazolyl tetrazolium to formazan by succinic acid dehydrogenase in the mitochondria of living cells (MTT assay). […] The MTT solution was carefully removed and 100 μL DMSO was added to dissolve formazan, and the absorbance of each well was measured by a multifunctional microplate reader at 570 nm and 630 nm. […]
(§3) Where “OD” represent the absorbance at 570 nm and 630 nm, “ps” and “control” represent experimental groups and control groups, respectively. […]
(§4) And the fluorescence signals were monitored at different post -injection time by a NightOWL II LB983 small animal in vivo imaging system (German). […]
Background: Tetrazolium dyes change colour on reduction, which living cells bring about.

The test system of data set [3] is human mammary carcinoma (MCF7). The data set can be described thus: MTT cytotoxicity assay, MCF7. In kind it is cell-based. The conditions noted are these: light or radiation study, MCF7, 660 nm irradiation 12 J/cm^2. As to the method: as §1, §2, §3, §4
The subject of data set [4] is 4T1 subcutaneous solid tumor. The data set can be described thus: In vivo fluorescence imaging of 4T1 tumor-bearing mice. The arrangement: species or system BALB/c mice.
Source text: The prospective in vitro results prompted us to further explore in vivo application possibility of QTCy7-Ac, and a solid tumor model of BALB/c mice was established by inoculating 4T1 cells subcutaneously under the armpit (Figure 10a). All the BALB/c mice were purchased from Liaoning Changsheng Biotechnology Co., Ltd., and the animal experiments were approved by the Local Scientific Research Ethics Review Committee of the Animal Ethics Committee of Dalian University of Technology (ID no. // Ethics Approval No. 2021-043). When the tumor volume reached 100 mm^3, fluorescence imaging was performed at different time points after intravenous injection of QTCy7-Ac. […] To test this hypothesis, the mice were executed and dissected 2.5 h after intravenous injection, and the fluorescence imaging of the main organs and tumor was performed.
DMEM medium was replaced with saline to prevent false positive interference. […] Then the confocal fluorescence imaging was carried out and recorded with a 10 × objective lens.
as §2

“Also recorded” adds a separate entry of the source.

What is called IC50 is the concentration at which inhibition is half-maximal. In the case of `CCOC(=O)C1=C/C(=C\C=C2/Sc3ccccc3N2CC)C(=O)C(/C=C/c2sc3ccccc3[n+]2CC)=C1` [QTCy7-Ac], the LDH release rate result in data set [1] was “about 70%”. The 50% inhibitory concentration (IC50) was around 500 nM in data set [2] and around 600 nM in data set [3]. Also, the “time at which tumor region is lit up” value in data set [4] (after intravenous injection, 200 μM 100 μL) is reported as “around 60 min”. Besides, in data set [4] (organs and tumor 2.5 h after intravenous injection), the “route of metabolism / organ distribution by ex vivo fluorescence” value was “metabolized primarily through the kidney; also recorded: non-negligible fluorescence signal stronger than the liver”.
